From PubChem BioAssay AID2060497 (Molecular Pharmacology Branch, DTP, NCI, 2025)

System: 317291-083-R-J1-PDC complex spheroids, viability
Assay: Anticancer human tumor 317291-083-R-J1-PDC patient-derived soft tissue sarcoma cell line growth inhibition [GQUAD]
Settings: for IC50: curve of first compound; for viability, T/C: stronger effect = lower value
How it was run: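 Tumor cells were grown as complex spheroids with HUVEC endothelial cells and mesenchymal stem cells as stroma. G-quadruplex stabilizers were combined with targeted agents over half-log dilutions from near the clinical Cmax, or from 10 microM.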
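Also: spheroids exposed to compounds for one week before readout.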
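For viability, T/C in this document: percent viability relative to DMSO vehicle wells taken as 100%.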

- IC50 (second compound 0.0316 µM): < 0.999 nM
- IC50 (second compound 0.1 µM): < 0.999 nM
- IC50 (second compound 0.316 µM): < 0.999 nM
- IC50 (second compound 1 µM): < 0.999 nM
- IC50 (second compound 3.16 µM): < 0.999 nM
- IC50 (second compound 10 µM): < 0.999 nM
SMILES: CCc1c2c(nc3ccc(O)cc13)-c1cc3c(c(=O)n1C2)COC(=O)[C@]3(O)CC + Cc1cnc(CNC(=O)c2c(=O)c3ccc(N4CCCN(C)CC4)nc3n3c2sc2ccccc23)cn1
- viability, T/C (second compound 0.0316 µM, first compound 0.000999 µM): 39.3%
- viability, T/C (second compound 0.0316 µM, first compound 0.00316 µM): 18%
- viability, T/C (second compound 0.0316 µM, first compound 0.00999 µM): 10.7%
- viability, T/C (second compound 0.0316 µM, first compound 0.0316 µM): 7.46%
- viability, T/C (second compound 0.0316 µM, first compound 0.0999 µM): 9.54%
- viability, T/C (second compound 0.0316 µM, first compound 0.316 µM): 5.6%
- viability, T/C (second compound 0.1 µM, first compound 0.000999 µM): 33.9%
- viability, T/C (second compound 0.1 µM, first compound 0.00316 µM): 16%
- viability, T/C (second compound 0.1 µM, first compound 0.00999 µM): 11.3%
- viability, T/C (second compound 0.1 µM, first compound 0.0316 µM): 13.6%
- viability, T/C (second compound 0.1 µM, first compound 0.0999 µM): 5.29%
- viability, T/C (second compound 0.1 µM, first compound 0.316 µM): 3.08%
- viability, T/C (second compound 0.316 µM, first compound 0.000999 µM): 20.6%
- viability, T/C (second compound 0.316 µM, first compound 0.00316 µM): 21.5%
- viability, T/C (second compound 0.316 µM, first compound 0.00999 µM): 15.5%
- viability, T/C (second compound 0.316 µM, first compound 0.0316 µM): 9.82%
- viability, T/C (second compound 0.316 µM, first compound 0.0999 µM): 7.3%
- viability, T/C (second compound 0.316 µM, first compound 0.316 µM): 2.31%
- viability, T/C (second compound 1 µM, first compound 0.000999 µM): 21.9%
- viability, T/C (second compound 1 µM, first compound 0.00316 µM): 25.9%
- viability, T/C (second compound 1 µM, first compound 0.00999 µM): 11.1%
- viability, T/C (second compound 1 µM, first compound 0.0316 µM): 9.26%
- viability, T/C (second compound 1 µM, first compound 0.0999 µM): 12.2%
- viability, T/C (second compound 1 µM, first compound 0.316 µM): 1.09%
- viability, T/C (second compound 3.16 µM, first compound 0.000999 µM): 26.1%
- viability, T/C (second compound 3.16 µM, first compound 0.00316 µM): 14.9%
- viability, T/C (second compound 3.16 µM, first compound 0.00999 µM): 9.17%
- viability, T/C (second compound 3.16 µM, first compound 0.0316 µM): 2.26%
- viability, T/C (second compound 3.16 µM, first compound 0.0999 µM): 2.54%
- viability, T/C (second compound 3.16 µM, first compound 0.316 µM): 0.17%
- viability, T/C (second compound 10 µM, first compound 0.000999 µM): 15.2%
- viability, T/C (second compound 10 µM, first compound 0.00316 µM): 7.77%
- viability, T/C (second compound 10 µM, first compound 0.00999 µM): 8.64%
- viability, T/C (second compound 10 µM, first compound 0.0316 µM): 8.52%
- viability, T/C (second compound 10 µM, first compound 0.0999 µM): 6.98%
- viability, T/C (second compound 10 µM, first compound 0.316 µM): 0.18%
